Measurements taken from paper PMC7765794 (Nutrients, 2020).

Tests used:
human ODC = target: T1, human ODC (Homo sapiens, UniProt P11926); assay: ODC enzyme activity assay and inhibition study (CO2-L3K coupled spectrophotometric assay); type: biochemical; details: for IC50 / IC50 to ornithine decarboxylase (ODC): purified human ODC, 37 °C, 10 mM ornithine, 0.2 mM PLP, n = 3; for IC50: read-out: IC50 to ornithine decarboxylase (ODC); for Ki: with respect to substrate L-ornithine, noncompetitive fit, read-out: Ki(ornithine) against ODC; for ODC suppression activity (in words): purified human ODC enzyme activity;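 as to all read-outs here: His-tagged human ODC expressed in Escherichia coli, activity followed as decarboxylation coupled via PEP carboxylation and malate formation to NADH analog oxidation, absorbance drop at 405 nm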
T1 construct: His-tag (N); made in house; host or cells: Escherichia coli JM109
T1 sequence (P11926 1-461): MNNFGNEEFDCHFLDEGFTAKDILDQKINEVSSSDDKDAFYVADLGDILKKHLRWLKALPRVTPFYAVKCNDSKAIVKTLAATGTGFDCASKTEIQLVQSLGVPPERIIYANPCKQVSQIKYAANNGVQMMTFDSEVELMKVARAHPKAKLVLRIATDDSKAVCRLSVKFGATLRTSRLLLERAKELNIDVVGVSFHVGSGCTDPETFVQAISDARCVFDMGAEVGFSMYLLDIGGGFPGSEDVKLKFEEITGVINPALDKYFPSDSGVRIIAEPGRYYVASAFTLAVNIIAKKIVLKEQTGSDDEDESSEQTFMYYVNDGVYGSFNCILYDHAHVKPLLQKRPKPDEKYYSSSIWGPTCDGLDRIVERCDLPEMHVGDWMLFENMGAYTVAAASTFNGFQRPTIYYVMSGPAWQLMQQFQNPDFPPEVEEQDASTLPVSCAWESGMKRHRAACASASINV

HL-60 cells = assay: Cell viability (trypan blue), acridine orange staining and DNA fragmentation in HL-60 cells; type: cell-based, human; details: for apoptosis in HL-60 cells (apoptotic bodies, DNA fragmentation): 50 μM baicalein or up to 75 µM myricetin, 24 h; for IC50: Homo sapiens, HL-60, after 24 h, viable cell count
Description: The human promyelocytic leukemia HL-60 and human acute Jurkat T cell leukemia cell lines were grown in 90% RPMI 1640 medium supplemented with 10% fetal bovine serum (FBS) at a temperature of 37 °C under a humidified 5% CO2 atmosphere. These cell lines were approved by short tandem repeat profiling, and the cells were passaged for no more than 2 months. Cells (2 × 10^6/mL) were seeded into 60-mm Petri dishes and incubated at 37 °C. The cells were harvested by treatment with 5 µM rottlerin. Viable cells were counted using the trypan blue exclusion method. The cell suspension was mixed on a slide with an equal volume of acridine orange solution (10 mg/mL). Green fluorescence was detected between 500 and 525 nm with a fluorescence microscope (Zeiss, Oberkochen, Germany). Cells were harvested and lysed overnight in digestion buffer (0.5% sarkosyl, 0.5 mg/mL proteinase K, 50 mM Tris-HCl, pH 8.0 and 10 mM ethylenediamine tetraacetic acid (EDTA) at 55 °C). Subsequently, cells were treated with 0.5 μg/mL RNase A for 2 h. Genomic DNA was extracted by phenol/chloroform/isoamyl alcohol extraction and analyzed by gel electrophoresis using 2% agarose.

Jurkat cells = assay: Cell growth and apoptosis in Jurkat cells; type: cell-based, human; details: for growth of Jurkat cells (in words): 100 µM baicalein or 75 µM myricetin (Figure S5); for apoptosis of Jurkat cells (in words): 100 µM baicalein or myricetin (Figure S5)
Description: The human promyelocytic leukemia HL-60 and human acute Jurkat T cell leukemia cell lines were grown in 90% RPMI 1640 medium supplemented with 10% fetal bovine serum (FBS) at a temperature of 37 °C under a humidified 5% CO2 atmosphere. These cell lines were approved by short tandem repeat profiling, and the cells were passaged for no more than 2 months.
Cells (2 × 10^6/mL) were seeded into 60-mm Petri dishes and incubated at 37 °C. The cells were harvested by treatment with 5 µM rottlerin. Viable cells were counted using the trypan blue exclusion method. The cell suspension was mixed on a slide with an equal volume of acridine orange solution (10 mg/mL). Green fluorescence was detected between 500 and 525 nm with a fluorescence microscope (Zeiss, Oberkochen, Germany).
Cells were harvested and lysed overnight in digestion buffer (0.5% sarkosyl, 0.5 mg/mL proteinase K, 50 mM Tris-HCl, pH 8.0 and 10 mM ethylenediamine tetraacetic acid (EDTA) at 55 °C). Subsequently, cells were treated with 0.5 μg/mL RNase A for 2 h. Genomic DNA was extracted by phenol/chloroform/isoamyl alcohol extraction and analyzed by gel electrophoresis using 2% agarose.
(C) and (D) Apoptotic bodies […]
(1 picture or pasted object on this page, not shown here)

ODC-empty HL-60 cells = assay: Cell growth and apoptosis in HL-60 cells with ODC-empty vector; type: cell-based, human; details: 50 μM baicalein or 75 µM myricetin; for cell growth of ODC-empty HL-60 cells (in words): 24 h
Description: (§1) Cells (2 × 10^6/mL) were seeded into 60-mm Petri dishes and incubated at 37 °C. The cells were harvested by treatment with 5 µM rottlerin. Viable cells were counted using the trypan blue exclusion method. The cell suspension was mixed on a slide with an equal volume of acridine orange solution (10 mg/mL). Green fluorescence was detected between 500 and 525 nm with a fluorescence microscope (Zeiss, Oberkochen, Germany). The ODC-empty vector (pcDNA3-ODC-empty) and ODC-overexpressing vector (pcDNA3-ODC-WT) were transfected into parental HL-60 cells according to calcium phosphate-mediated transfection. Stably transfected cells were selected with the antibiotic G418 (400 μg/mL). After three weeks, the isolated G418-resistant clones were individually selected to analyze the protein expression of ODC in the cells. Cells were harvested and lysed overnight in digestion buffer (0.5% sarkosyl, 0.5 mg/mL proteinase K, 50 mM Tris-HCl, pH 8.0 and 10 mM ethylenediamine tetraacetic acid (EDTA) at 55 °C). Subsequently, cells were treated with 0.5 μg/mL RNase A for 2 h. Genomic DNA was extracted by phenol/chloroform/isoamyl alcohol extraction and analyzed by gel electrophoresis using 2% agarose.

ODC-WT HL-60 cells = assay: Cell growth and apoptosis in ODC-overexpressing HL-60 cells; type: cell-based, human; details: for apoptosis in ODC-WT HL-60 cells (in words): 50 μM baicalein or 75 µM myricetin
Description: as §1, with “The cells were harvested by treatment with 5 µM rottlerin.” left out

O=c1c(O)c(-c2cc(O)c(O)c(O)c2)oc2cc(O)cc(O)c12 [Myricetin]
IC50 (human ODC): 7.3 µM
apoptosis in HL-60 cells (apoptotic bodies, DNA fragmentation) (HL-60 cells): induced apoptosis
IC50 (HL-60 cells): ~75 µM
growth of Jurkat cells (in words) (Jurkat cells): suppressed the growth of Jurkat cells
apoptosis of Jurkat cells (in words) (Jurkat cells): induced cellular apoptosis with DNA fragmentation
apoptosis in ODC-empty HL-60 cells (in words) (ODC-empty HL-60 cells): induced apoptotic bodies in ODC-empty cells
cell growth of ODC-empty HL-60 cells (in words) (ODC-empty HL-60 cells): more effective than in ODC-WT HL-60 cells
apoptosis in ODC-WT HL-60 cells (in words) (ODC-WT HL-60 cells): but not in ODC-WT HL-60 cells

O=c1cc(-c2ccccc2)oc2c(O)c(O)ccc12 [7,8-Dihydroxyflavone]
inhibition pattern with respect to L-ornithine (human ODC; double reciprocal plots): noncompetitive inhibition pattern
IC50 (human ODC): 2.54 µM
Ki (human ODC): 1.4 ± 0.1 µM

Cn1c(=O)c2[nH]cnc2n(C)c1=O [Theophylline, reference compound]
ODC suppression activity (in words) (human ODC): cannot inhibit ODC activity
ODC suppression activity (in words) (human ODC; listed as theophylline): none of these compounds were able to suppress ODC activity

O=c1cc(-c2ccccc2)oc2cc(O)c(O)c(O)c12 [Baicalein, 5,6,7-trihydroxyflavone]
IC50 (human ODC): 0.88 µM
Ki (human ODC): 0.64 ± 0.18 µM
apoptosis in HL-60 cells (apoptotic bodies, DNA fragmentation) (HL-60 cells): exhibited apoptosis
IC50 (HL-60 cells): ~50 µM
cell death / growth suppression in HL-60 cells (in words) (HL-60 cells; baicalein 0–70 μM): cell death was dose-dependent
growth of Jurkat cells (in words) (Jurkat cells): suppressed the growth of Jurkat cells
apoptosis of Jurkat cells (in words) (Jurkat cells): induced cellular apoptosis with DNA fragmentation
apoptosis in ODC-empty HL-60 cells (in words) (ODC-empty HL-60 cells): appearance of apoptotic bodies and DNA fragmentation
cell growth of ODC-empty HL-60 cells (in words) (ODC-empty HL-60 cells): growth arrest
apoptosis in ODC-WT HL-60 cells (in words) (ODC-WT HL-60 cells): normal cell morphology and slight DNA fragmentation
cell growth of ODC-WT HL-60 cells (in words) (ODC-WT HL-60 cells; 50 μM baicalein, 24 h): growth arrest

C[C@@H]1O[C@@H](OC[C@H]2O[C@@H](Oc3c(-c4ccc(O)c(O)c4)oc4cc(O)cc(O)c4c3=O)[C@H](O)[C@@H](O)[C@@H]2O)[C@H](O)[C@H](O)[C@H]1O [Rutin]
ODC suppression activity (in words) (human ODC): did not display apparent ODC-suppressing activity
IC50 (human ODC): > 120 µM

NCCCC(N)(C(=O)O)C(F)F (racemic) [DFMO, α-DL-difluoromethylornithine, reference compound]
IC50 (human ODC): ~100 µM

O=c1c(O)c(-c2ccc(O)cc2)oc2cc(O)cc(O)c12 [Kaempferol]
ODC suppression activity (in words) (human ODC): did not show any ODC suppression activity

O=c1cc(-c2ccccc2)oc2cc(O)cc(O)c12 [Chrysin]
ODC suppression activity (in words) (human ODC): little ODC suppression activity
IC50 to ornithine decarboxylase (ODC) (human ODC): No inhibition

O=c1c(O)c(-c2ccc(O)c(O)c2)oc2cc(O)ccc12 [Fisetin]
IC50 (human ODC): 96 µM

CCOc1cc(C=O)ccc1O [Ethyl vanillin, reference compound]
ODC suppression activity (in words) (human ODC): cannot inhibit ODC activity
ODC suppression activity (in words) (human ODC; listed as ethyl vanillin): none of these compounds were able to suppress ODC activity

O=c1cc(-c2ccccc2)oc2ccccc12 [Flavone]
ODC suppression activity (in words) (human ODC): little ODC suppression activity
IC50 to ornithine decarboxylase (ODC) (human ODC): No inhibition

COc1ccc2c(=O)cc(-c3ccccc3)oc2c1OC [7,8-Dimethoxyflavone]
ODC suppression activity (in words) (human ODC): little ODC suppression activity
IC50 to ornithine decarboxylase (ODC) (human ODC): No inhibition

O=C1C=Cc2ccccc2C1=O [1,2-Naphthoquinone, reference compound]
ODC suppression activity (in words) (human ODC): cannot inhibit ODC activity
ODC suppression activity (in words) (human ODC; listed as 1,2-naphthoquinone): none of these compounds were able to suppress ODC activity
